IC50 data for twelve molecules are collected here from patent US20250304549A1, “HYDROXYAMIDE DERIVATIVE AND USE THEREOF” (SICHUAN HUIYU PHARMACEUTICAL CO., LTD., priority 2022, published 2025).

Each structure is given as a SMILES string. Structures can show the parent of a compound that is named as a salt.

The target in assay [1] is LSD1 (Homo sapiens (Human), UniProt O60341). As to the kind of experiment: In vitro enzyme inhibition assay - LSD1 (HTRF). The format is biochemical. In general terms: TR-FRET usually uses a lanthanide donor and a delayed reading to cut background.
For assay [2], the target named is pan-HDAC. As to the kind of experiment: In vitro enzyme inhibition assay - HDAC (HDAC-Glo I/II), pan-HDAC. Format: biochemical. The method, boiled down:
(§1)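 The compound, serially diluted 5-fold in DMSO across 8 concentrations starting from a 1 mM stock, was made up as 4× working solutions in HDAC buffer. It was then tested in the HDAC-Glo I/II system, and luminescence was recorded. IC50 values came from variable-slope four-parameter curves of inhibition rate.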

Assay [3] deals with HDAC8 (Homo sapiens (Human), UniProt Q9BY41). As to the kind of experiment: In vitro enzyme inhibition assay - HDAC (HDAC-Glo I/II), HDAC8. Particulars: read-out: HDAC IC50 (nM) HDAC 8. Format: biochemical. The method, boiled down: as §1
Assay [4] concerns NCI-H1417 cells. Description: In vitro cell inhibition assay - H1417 cell proliferation (CellTiter-Glo). Format: cell-based. The settings on record: Homo sapiens, NCI-H1417, H1417 small cell lung cancer cell proliferation. The method, boiled down:
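Cells exposed to 8 compound concentrations (5-fold dilutions) in BEGM with 10% FBS for 7 days at 37° C., 5% CO2. Viable cells measured by CellTiter-Glo luminescence; inhibition versus no-inhibitor and no-cell controls, IC50 fitted.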

Assay [5] has as its system NCI-H69 cells. Description: In vitro cell inhibition assay - NCI-H69 cell proliferation (CellTiter-Glo). The format is cell-based. Particulars: Homo sapiens, NCI-H69, H69 small cell lung cancer cell proliferation. In outline: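 7-day exposure at 37° C., 5% CO2 to compounds serially diluted 5-fold (8 concentrations) in RPMI-640 containing 20% FBS, after overnight attachment at 1×10^3 cells/well. Read-out: CellTiter-Glo luminescence (RLU); IC50 from curve fit of inhibition rate.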
(ATP-based viability assays read luminescence as a measure of living cells.)

Assay [6] has as its system NCI-H526 cells. As to the kind of experiment: In vitro cell inhibition assay - NCI-H526 cell proliferation (CellTiter-Glo). The format is cell-based. Particulars: Homo sapiens, NCI-H526, 120 h, H526 small cell lung cancer cell proliferation, 5 days. The protocol: 6. In Vitro Cell Inhibition Assay—NCI-H526 Cell Proliferation
The inhibitory effect of the compounds on cell proliferation was assessed by detecting the number of viable cells using CellTiter-Glo® reagent. NCI-H526 cells in the logarithmic growth phase were collected and inoculated into transparent bottom 96-well plates at a density 1×10^3 cells per well with 100 μL of medium, and incubated at 37° C., 5% CO2 overnight. The compounds were sequentially diluted in a 5-fold concentration gradient with DMSO to obtain 8 different concentrations. These were then diluted with RPMI-640 (containing 10% FBS) cell culture medium to obtain the compound working solution (2×), which was added to the cell supernatant at 100 μL per well. The incubation continued for 5 days at 37° C., 5% CO2. The plate was then removed and equilibrated at room temperature (25° C.) along with the CellTiter-Glo® mixing reagent for 10-30 minutes; 80 μL of the culture medium was carefully aspirated from each well, and 80 μL of CellTiter-Glo® reagent was added. The cells were thoroughly mixed with the CellTiter-Glo® mixing reagent using a microplate shaker for 2 min. and then incubated at room temperature for 10 min. The 96-well plate was subsequently placed on a multifunctional microplate reader to record the Luminescence values (RLU).
The inhibition rate was calculated using the following formula: […]
Note: ‘Negative’ refers to the group without inhibitors; ‘Blank’ refers to the group without cells.
The IC50 value was determined by fitting the inhibition rate by GraphPad Prism software.

Sequence of HDAC8 (Q9BY41 whole entry): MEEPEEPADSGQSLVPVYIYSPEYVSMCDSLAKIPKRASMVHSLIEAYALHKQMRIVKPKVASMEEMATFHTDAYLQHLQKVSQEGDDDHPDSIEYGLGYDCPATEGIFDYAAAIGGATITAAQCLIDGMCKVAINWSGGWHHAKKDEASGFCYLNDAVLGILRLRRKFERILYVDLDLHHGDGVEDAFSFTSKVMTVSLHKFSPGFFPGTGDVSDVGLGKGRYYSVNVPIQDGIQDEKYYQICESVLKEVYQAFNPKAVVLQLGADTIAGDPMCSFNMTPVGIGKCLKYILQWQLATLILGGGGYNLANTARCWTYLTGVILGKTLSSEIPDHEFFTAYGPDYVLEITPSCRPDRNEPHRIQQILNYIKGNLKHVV

With `COc1ccc(-c2cnc(N3CCC(NCc4ccc(/C=C/C(=O)NO)cc4F)CC3)c(C#N)c2-c2ccc(C#N)c(F)c2)cc1O` [Example 154, (E)-3-(4-(((1-(3-Cyano-4-(4-cyano-3-fluorophenyl)-5-(3-hydroxy-4-methoxyphenyl)pyridin-2-yl)piperidin-4-yl)amino)methyl)-3-fluorophenyl)-N-hydroxyacrylamide hydrochloride], the IC50 (in general, the concentration at which inhibition is half-maximal) in assay [1] was found to be 0.44 nM; in assay [2], 4.3 nM; in assay [3], 309 nM; in assay [4] it was 1.41 nM; in assay [5] it was 16.5 nM; in assay [6], 21.7 nM.

With `COc1ccc(-c2cnc(N3CCC(NCc4ccc(/C=C/C(=O)NO)cc4Cl)CC3)c(C#N)c2-c2ccc(C#N)c(F)c2)cc1O` [Example 156, (E)-3-(3-Chloro-4-((1-(3-cyano-4-(4-cyano-3-fluorophenyl)-5-(3-hydroxy-4-methoxyphenyl)pyridin-2-yl)piperidin-4-yl)amino)methyl) phenyl)-N-hydroxyacrylamide formate], the half-inhibitory concentration (IC50) in assay [1] was found to be 2.53 nM; in assay [2] it was 8.88 nM; in assay [3] it was 731 nM; in assay [4], 6.64 nM; in assay [5] it was 58.1 nM; in assay [6] it was 80.4 nM.

Consider `N#Cc1ccc(-c2c(-c3ccc(Cl)c(O)c3)cnc(N3CCC(NCc4cnc(/C=C/C(=O)NO)nc4)CC3)c2C#N)cc1F` [Example 159, (E)-3-(5-(((1-(5-(4-Chloro-3-hydroxyphenyl)-3-cyano-4-(4-cyano-3-fluorophenyl)pyridin-2-yl)piperidin-4-yl)amino)methyl)pyrimidin-2-yl)-N-hydroxyacrylamide hydrochloride], for which the 50% inhibitory concentration (IC50) is 1.82 nM in assay [1]; 2.71 nM in assay [2]; 83.5 nM in assay [3]; 3.5 nM in assay [4]; 17.9 nM in assay [5]; 16.1 nM in assay [6].

With `COc1ccc(-c2cnc(N3CCC(NCc4ccc(/C=C/C(=O)NO)c(C#N)c4)CC3)c(C#N)c2-c2ccc(C#N)c(F)c2)cc1O` [Example 162, (E)-3-(2-Cyano-4-((1-(3-cyano-4-(4-cyano-3-fluorophenyl)-5-(3-hydroxy-4-methoxyphenyl)pyridin-2-yl)piperidin-4-yl)amino)methyl) phenyl)-N-hydroxyacrylamide formate], the IC50 in assay [1] is 0.4 nM; in assay [2], 3.34 nM; in assay [3] it was 209 nM; in assay [4], 2.98 nM; in assay [5], 21.7 nM; in assay [6] it was 18.5 nM.

For `COc1ccc(-c2cnc(N3CCC(NCc4ccc(/C(C)=C/C(=O)NO)cc4)CC3)c(C#N)c2-c2ccc(C#N)c(F)c2)cc1O` [Example 170, (E)-3-(4-(((1-(3-Cyano-4-(4-cyano-3-fluorophenyl)-5-(3-hydroxy-4-methoxyphenyl)pyridin-2-yl)piperidin-4-yl)amino)methyl)phenyl)-N-hydroxybut-2-enamide formate], the half-inhibitory concentration (IC50) in assay [1] worked out at 0.43 nM; in assay [2], 2 nM; in assay [3], 62.7 nM; in assay [4], 1.28 nM; in assay [5] it was 27.6 nM; in assay [6], 27.5 nM.

Consider `COc1ccc(-c2cnc(N3CCC(NCc4ccc(/C=C(\F)C(=O)NO)cc4)CC3)c(C#N)c2-c2ccc(C#N)c(F)c2)cc1O` [Example 171, (Z)-3-(4-(((1-(3-Cyano-4-(4-cyano-3-fluorophenyl)-5-(3-hydroxy-4-methoxyphenyl)pyridin-2-yl)piperidin-4-yl)amino)methyl)phenyl)-2-fluoro-N-hydroxyacrylamide formate], for which the concentration for half-maximal inhibition (IC50) came out at 0.55 nM in assay [1]; 1.68 nM in assay [2]; 53.1 nM in assay [3]; 0.54 nM in assay [4]; 14.5 nM in assay [5]; 12.3 nM in assay [6].

`COc1ccc(-c2c(C#N)cc(N3CCC(NCc4ccc(/C=C/C(=O)NO)cc4)CC3)nc2-c2ccc(C#N)c(F)c2)cc1O` [Example 176, (E)-3-(4-(((1-(4-cyano-6-(4-cyano-3-fluorophenyl)-5-(3-hydroxy-4-methoxyphenyl)pyridin-2-yl)piperidin-4-yl)amino)methyl)phenyl)-N-hydroxyacrylamide formate]: the IC50 in assay [1] came to 0.69 nM; in assay [2], 38.2 nM; in assay [3] it was 508 nM; in assay [4], 1.88 nM; in assay [5] it was 245 nM; in assay [6], 497 nM.

Consider `CC(C)(O)Cn1nnc2cc(-c3cnc(N4CCC(NCc5ccc(/C=C/C(=O)NO)cc5)CC4)c(C#N)c3-c3ccc(C#N)c(F)c3)ccc21` [Example 197, (E)-3-(4-(((1-(3-Cyano-4-(4-cyano-3-fluorophenyl)-5-(1-(2-hydroxy-2-methylpropyl)-1H-benzo[d][1,2,3]triazol-5-yl)pyridin-2-yl)piperidin-4-yl)amino)methyl)phenyl)-N-hydroxyacrylamide formate], for which the IC50 was 0.49 nM in assay [1]; 7.48 nM in assay [2]; 30.1 nM in assay [3]; 3.59 nM in assay [4]; 71.8 nM in assay [5]; 193 nM in assay [6].

Consider `COc1ccc(-c2cnc(N3CCC(NCc4ccc(/C=C/C(=O)NO)cc4F)CC3)c(OC)c2-c2ccc(C#N)nc2)cc1O` [Example 264, (E)-3-(4-(((1-(6-Cyano-5′-(3-hydroxy-4-methoxyphenyl)-3′-methoxy-[3,4′-bipyridin]-2′-yl)piperidin-4-yl)amino)methyl)-3-fluorophenyl)-N-hydroxyacrylamide formate], for which the IC50 in assay [1] amounted to 25.4 nM; in assay [2] it was 0.89 nM; in assay [4] it was 2.2 nM; in assay [5], 1.84 nM; in assay [6], 5.12 nM.

In the case of `COc1cc(F)c(-c2cnc(N3CCC(NCc4ccc(/C=C/C(=O)NO)cc4)CC3)c(OC)c2-c2ccc(C#N)nc2)cc1O` [Example 265, (E)-3-(4-(((1-(6-Cyano-5′-(2-fluoro-5-hydroxy-4-methoxyphenyl)-3′-methoxy-[3,4′-bipyridin]-2′-yl)piperidin-4-yl)amino)methyl)phenyl)-N-hydroxyacrylamide formate], the 50% inhibitory concentration (IC50) worked out at 10.2 nM in assay [1]; 0.45 nM in assay [2]; 5.09 nM in assay [4]; 7.2 nM in assay [5]; 5.85 nM in assay [6].

`COc1ccc(-c2cnc(N3CCC(NCc4ccc(/C=C/C(=O)NO)nc4)CC3)c(OC)c2-c2ccc(C#N)nc2)cc1O` [Example 266, (E)-3-(5-(((1-(6-Cyano-5′-(3-hydroxy-4-methoxyphenyl)-3′-methoxy-[3,4′-bipyridin]-2′-yl)piperidin-4-yl)amino)methyl)pyridin-2-yl)-N-hydroxyacrylamide formate]: the IC50 in assay [1] was 24.2 nM; in assay [2] it was 0.16 nM; in assay [4], 2.09 nM; in assay [5], 2.02 nM; in assay [6] it was 2.35 nM.

Consider `COc1ccc(-c2cnc(N3CCC(NCc4ccc(/C=C/C(=O)NO)cc4)CC3)c(F)c2-c2ccc(C#N)nc2)cc1O` [Example 268, (E)-3-(4-(((1-(6-Cyano-3′-fluoro-5′-(3-hydroxy-4-methoxyphenyl)-[3,4′-bipyridin]-2′-yl)piperidin-4-yl)amino)methyl)phenyl)-N-hydroxyacrylamide formate], for which the IC50 in assay [1] was 147 nM; in assay [2], 0.27 nM; in assay [4], 2.03 nM; in assay [5] it was 1.58 nM; in assay [6] it was 2.22 nM.
